# Reference: US11078170B2 (Assembly Biosciences, Inc., priority 2017, dated 2021)
# pEC50: −log10 of the molar value.
# Test system: HBV viral production from HepAD38 cells
# Experiment: Activity of test compounds on viral production from HepAD38 cells (viral load by qPCR of HBV core sequence in supernatant)
# Format: cell-based
# Details: Hepatitis B virus, 120 h, 5 days incubation, HBV DNA in supernatant by qPCR, top concentration 10 μM, read-out: Viral Load EC50 Activity range
# Method in brief: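 HepAD38 cells, 50,000/well in tetracycline-free 2% FBS medium, treated 5 days at 37° C. with compound from 10 μM top concentration. HBV DNA in supernatant quantified by TaqMan qPCR of core sequence against DNA standards, relative to DMSO wells; CellTiter-Glo viability read in parallel. EC50/CC50 from four-parameter logistic fit.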
row,Compound,pEC50
1,"O=C(Nc1ccc(F)c(Cl)c1)[C@H]1C[C@@H](c2nccs2)NS(=O)(=O)N1CCCO [HBV-CSU-078-ISO-II, Cis-N-(3-Chloro-4-fluorophenyl)-2-(3-hydroxypropyl)-5-(thiazol-2-yl)-1,2,6-thiadiazinane-3-carboxamide 1,1-dioxide]",< 5.30
2,"CN1[C@@H](C(=O)Nc2ccc(F)c(Cl)c2)C[C@@H](c2cc(-c3ccc(F)cn3)cs2)NS1(=O)=O (stereo in doubt) [HBV-CSU-243-ISO-I, Cis-N-(3-chloro-4-fluorophenyl)-5-(4-(5-fluoropyridin-2-yl)thiophen-2-yl)-2-methyl-1,2,6-thiadiazinane-3-carboxamide 1,1-dioxide]",< 5.30
3,"CN1[C@H](C(=O)Nc2ccc(F)c(Cl)c2)C[C@H](c2ccc(-c3cnn(C(F)(F)F)c3)s2)NS1(=O)=O [HBV-CSU-321-ISO-I, Cis-N-(3-Chloro-4-fluorophenyl)-2-methyl-5-(5-(1-(trifluoromethyl)-1H-pyrazol-4-yl)thiophen-2-yl)-1,2,6-thiadiazinane-3-carboxamide 1,1-dioxide]",> 6.00
4,"Cc1nn(C)c(C)c1-c1csc(C2CC(C(=O)Nc3ccc(F)c(Cl)c3)N(C)S(=O)(=O)N2)c1 (racemic) [HBV-CSU-317, Cis-N-(3-chloro-4-fluorophenyl)-2-methyl-5-(4-(1,3,5-trimethyl-1H-pyrazol-4-yl)thiophen-2-yl)-1,2,6-thiadiazinane-3-carboxamide 1,1-dioxide]",> 6.00
5,"CN1C(C(=O)Nc2ccc(Cl)c(F)c2)CC(c2cccs2)NS1(=O)=O (stereo not drawn) [HBV-CSU-018, Cis-N-(4-Chloro-3-fluorophenyl)-2-methyl-5-(thiophen-2-yl)-1,2,6-thiadiazinane-3-carboxamide 1,1-dioxide]",5.30 to 6.00
6,"CN1[C@H](C(=O)Nc2ccc(F)c(Cl)c2)C[C@H](c2ccc(-c3ncn(C)n3)s2)NS1(=O)=O [HBV-CSU-322-ISO-I, Cis-N-(3-Chloro-4-fluorophenyl)-2-methyl-5-(5-(1-methyl-1H-1,2,4-triazol-3-yl)thiophen-2-yl)-1,2,6-thiadiazinane-3-carboxamide 1,1-dioxide]",> 6.00
7,"Cc1ncc(C2CC(C(=O)Nc3ccc(F)c(Cl)c3)N(C)S(=O)(=O)N2)s1 (racemic) [HBV-CSU-224, Cis-N-(3-Chloro-4-fluorophenyl)-2-methyl-5-(2-methylthiazol-5-yl)-1,2,6-thiadiazinane-3-carboxamide 1,1-dioxide]",> 6.00
8,"CN1[C@@H](C(=O)Nc2ccc(F)c(Cl)c2)C[C@@H](c2ncc(-c3ccnn3C)s2)NS1(=O)=O [HBV-CSU-281-ISO-II, Cis-N-(3-Chloro-4-fluorophenyl)-2-methyl-5-(5-(1-methyl-1H-pyrazol-5-yl)thiazol-2-yl)-1,2,6-thiadiazinane-3-carboxamide 1,1-dioxide]",5.30 to 6.00
9,COc1ccc(-c2ccc([C@H]3C[C@@H](C(=O)Nc4ccc(F)c(Cl)c4)N(C)S(=O)(=O)N3)s2)cc1 [HBV-CSU-240-ISO-I],> 6.00
10,"O=C(Nc1ccc(F)c(Cl)c1)[C@@H]1C[C@H](c2nccs2)NS(=O)(=O)N1CCCO [HBV-CSU-078-ISO-I, Cis-N-(3-Chloro-4-fluorophenyl)-2-(3-hydroxypropyl)-5-(thiazol-2-yl)-1,2,6-thiadiazinane-3-carboxamide 1,1-dioxide]",> 6.00
11,"CN1[C@H](C(=O)Nc2ccc(F)c(Cl)c2)C[C@H](c2ccc(C(N)=O)cc2)NS1(=O)=O [HBV-CSU-214-ISO-II, Cis-5-(4-Carbamoylphenyl)-N-(3-chloro-4-fluorophenyl)-2-methyl-1,2,6-thiadiazinane-3-carboxamide 1,1-dioxide]",> 6.00
12,"CN1C(C(=O)Nc2ccc(F)c(C#N)c2)CC(c2cccs2)NS1(=O)=O (racemic) [HBV-CSU-045, Cis-N-(3-cyano-4-fluorophenyl)-2-methyl-5-(thiophen-2-yl)-1,2,6-thiadiazinane-3-carboxamide 1,1-dioxide]",> 6.00
13,"CN1[C@@H](C(=O)Nc2cc(F)c(F)c(F)c2)C[C@@H](c2ccc(F)cc2)NS1(=O)=O [HBV-CSU-212-ISO-II, Cis-5-(4-Fluorophenyl)-2-methyl-N-(3,4,5-trifluorophenyl)-1,2,6-thiadiazinane-3-carboxamide 1,1-dioxide]",< 5.30
14,"CN1C(C(=O)Nc2ccc(F)c(Cl)c2)CC(c2cc(-c3ccc(NS(C)(=O)=O)cc3)cs2)NS1(=O)=O (stereo not drawn) [HBV-CSU-171, Cis-N-(3-chloro-4-fluorophenyl)-2-methyl-5-(4-(4-(methylsulfonamido)phenyl)thiophen-2-yl)-1,2,6-thiadiazinane-3-carboxamide 1,1-dioxide]",> 6.00
15,"COC(C)(C)CCN1[C@@H](C(=O)Nc2ccc(F)c(Cl)c2)C[C@@H](c2nccs2)NS1(=O)=O [HBV-CSU-083-ISO-I, Cis-N-(3-Chloro-4-fluorophenyl)-2-(3-methoxy-3-methylbutyl)-5-(thiazol-2-yl)-1,2,6-thiadiazinane-3-carboxamide 1,1-dioxide]",< 5.30
16,"[2H]C([2H])([2H])N1[C@H](C(=O)Nc2ccc(F)c(Cl)c2)C[C@H](c2ccc(-c3cn(C([2H])([2H])[2H])cn3)s2)NS1(=O)=O (stereo in doubt) [HBV-CSU-374-ISO-I, Cis-N-(3-Chloro-4-fluorophenyl)-2-(methyl-d3)-5-(5-(1-(methyl-d3)-1H-imidazol-4-yl)thiophen-2-yl)-1,2,6-thiadiazinane-3-carboxamide 1,1-dioxide]",> 6.00
17,"CN1[C@@H](C(=O)Nc2ccc(F)c(Cl)c2)C[C@@H](c2ncc(-c3cncn3C)s2)NS1(=O)=O [HBV-CSU-277-ISO-II, Cis-N-(3-Chloro-4-fluorophenyl)-2-methyl-5-(5-(1-methyl-1H-imidazol-5-yl)thiazol-2-yl)-1,2,6-thiadiazinane-3-carboxamide 1,1-dioxide]",< 5.30
18,"CN1C(C(=O)Nc2ccc(F)c(Cl)c2)CC(c2ccc(Br)c(F)c2)NS1(=O)=O (stereo not drawn) [HBV-CSU-283, Cis-5-(4-Bromo-3-fluorophenyl)-N-(3-chloro-4-fluorophenyl)-2-methyl-1,2,6-thiadiazinane-3-carboxamide 1,1-dioxide]",> 6.00
19,"CN1[C@@H](C(=O)Nc2ccc(F)c(Cl)c2)C[C@@H](c2ccc(C(N)=O)cc2)NS1(=O)=O [HBV-CSU-214-ISO-I, Cis-5-(4-Carbamoylphenyl)-N-(3-chloro-4-fluorophenyl)-2-methyl-1,2,6-thiadiazinane-3-carboxamide 1,1-dioxide]",< 5.30
20,"O=C(Nc1ccc(F)c(Cl)c1)C1CC(c2nccs2)NS(=O)(=O)N1CCO (stereo not drawn) [HBV-CSU-097, Cis-N-(3-Chloro-4-fluorophenyl)-2-(2-hydroxyethyl)-5-(thiazol-2-yl)-1,2,6-thiadiazinane-3-carboxamide 1,1-dioxide]",< 5.30
21,"O=C(Nc1ccc(F)c(Cl)c1)C1CC(c2cccs2)NS(=O)(=O)N1CCO (stereo not drawn) [HBV-CSU-041, Cis-N-(3-Chloro-4-fluorophenyl)-2-(2-hydroxyethyl)-5-(thiophen-2-yl)-1,2,6-thiadiazinane-3-carboxamide 1,1-dioxide]",< 5.30
22,"CN1[C@H](C(=O)Nc2ccc(F)c(Cl)c2)C[C@H](c2ncc(-c3cccnc3)s2)NS1(=O)=O [HBV-CSU-175-ISO-I, Cis-N-(3-Chloro-4-fluorophenyl)-2-methyl-5-(5-(pyridin-3-yl)thiazol-2-yl)-1,2,6-thiadiazinane-3-carboxamide 1,1-dioxide]",> 6.00
23,"CN1[C@H](C(=O)Nc2ccc(F)c(Cl)c2)C[C@H](c2ncc(-c3ccc(F)cc3)s2)NS1(=O)=O [HBV-CSU-248-ISO-I, Cis-N-(3-Chloro-4-fluorophenyl)-5-(5-(4-fluorophenyl)thiazol-2-yl)-2-methyl-1,2,6-thiadiazinane-3-carboxamide 1,1-dioxide]",> 6.00
24,"[2H]C([2H])([2H])N1[C@H](C(=O)Nc2ccc(F)c(Cl)c2)C[C@H](c2ncc(-c3cn(C([2H])([2H])[2H])cn3)s2)NS1(=O)=O [HBV-CSU-337-ISO-I, Cis-N-(3-Chloro-4-fluorophenyl)-2-(methyl-d3)-5-(5-(1-(methyl-d3)-1H-imidazol-4-yl)thiazol-2-yl)-1,2,6-thiadiazinane-3-carboxamide 1,1-dioxide]",> 6.00
25,"CN1[C@H](C(=O)Nc2ccc(F)c(Cl)c2)C[C@H](c2ccccc2)NS1(=O)=O [HBV-CSU-113-ISO-I, Cis-N-(3-chloro-4-fluorophenyl)-2-methyl-5-phenyl-1,2,6-thiadiazinane-3-carboxamide 1,1-dioxide]",> 6.00
26,"C=CCN1[C@H](C(=O)Nc2ccc(F)c(Cl)c2)C[C@H](c2nccs2)NS1(=O)=O [HBV-CSU-094-ISO-II, Cis-2-Allyl-N-(3-chloro-4-fluorophenyl)-5-(thiazol-2-yl)-1,2,6-thiadiazinane-3-carboxamide 1,1-dioxide]",> 6.00
27,"CN1C(C(=O)Nc2ccc(F)c(Cl)c2)CC(c2ccc(-c3cncs3)s2)NS1(=O)=O (racemic) [HBV-CSU-268, Cis-N-(3-Chloro-4-fluorophenyl)-2-methyl-5-(5-(thiazol-5-yl)thiophen-2-yl)-1,2,6-thiadiazinane-3-carboxamide 1,1-dioxide]",> 6.00
28,"[2H]C1[C@]([2H])(c2ncc(-c3cn(C)cn3)s2)NS(=O)(=O)N(C([2H])([2H])[2H])[C@]1([2H])C(=O)Nc1ccc(F)c(Cl)c1 (stereo in doubt) [HBV-CSU-340-ISO-I, Cis-N-(3-Chloro-4-fluorophenyl)-2-(methyl-d3)-5-(5-(1-methyl-1H-imidazol-4-yl)thiazol-2-yl)-1,2,6-thiadiazinane-3,4,5-d3-3-carboxamide 1,1-dioxide]",> 6.00
29,"CN1[C@@H](C(=O)Nc2ccc(F)c(Cl)c2)C[C@@H](c2cccc(F)c2)NS1(=O)=O [HBV-CSU-231-ISO-II, Cis-N-(3-Chloro-4-fluorophenyl)-5-(3-fluorophenyl)-2-methyl-1,2,6-thiadiazinane-3-carboxamide 1,1-dioxide]",< 5.30
